Measurements taken from patent US9371265B2, “Compositions and methods related to inhibitors of JAK kinase” (EP PHARMA, INC., priority 2012, dated 2016).

Legend:
MKNK1 = MKNK1 (Homo sapiens, UniProt Q9BUB5); assay: Kinase panel: MKNK1; type: biochemical; conditions: 10 μM EP009
Protocol: (§1) Achieving JAK3 selectivity remains a significant challenge in the development of new small molecules for the treatment of cancer and immune-derived diseases. As such, the inventors employed cell-based screening assays of small-molecule libraries based upon the chemical scaffold of the established JAK3 inhibitor NC1153 (Stepkowski et al., J Immunol. (2005), 175(7):4236-4246) EP009 (FIG. 2A) was selected as a lead compound due to improved intrinsic stability (>95% purity in various solvents at 37° C. for 24 hours; FIG. 3) and high-degree of JAK3 selectivity. To test JAK3 versus JAK2 specificity of EP009, the IL-2/JAK3-dependent Kit225, and IL-3/JAK2-dependent BaF/3 cell lines were used. Kit225 and BaF/3 cells growing in the presence of IL-2 or IL-3, respectively, were treated with ascending concentrations of EP009 for 12 hours and cellular JAK3 and JAK2 tyrosine phosphorylation levels detected by Western blot analysis (FIGS. 2B and 2C). Following densitometric analysis, EP009 was determined to dose-dependently reduce IL-2-mediated JAK3 tyrosine phosphorylation with a cellular 50% inhibitory concentration (IC50) between 10 and 20 μM (FIG. 2B). […] To globally evaluate specificity, the inhibitory activity of EP009 was measured against a panel of protein kinases distributed throughout the kinome using the scanEDGE profiling service (KINOMEscan). […]

TRKA = TRKA (Homo sapiens, UniProt P04629); assay: Kinase panel: TRKA; type: biochemical; conditions: 10 μM EP009
TRKA, sequence (P04629 33-796): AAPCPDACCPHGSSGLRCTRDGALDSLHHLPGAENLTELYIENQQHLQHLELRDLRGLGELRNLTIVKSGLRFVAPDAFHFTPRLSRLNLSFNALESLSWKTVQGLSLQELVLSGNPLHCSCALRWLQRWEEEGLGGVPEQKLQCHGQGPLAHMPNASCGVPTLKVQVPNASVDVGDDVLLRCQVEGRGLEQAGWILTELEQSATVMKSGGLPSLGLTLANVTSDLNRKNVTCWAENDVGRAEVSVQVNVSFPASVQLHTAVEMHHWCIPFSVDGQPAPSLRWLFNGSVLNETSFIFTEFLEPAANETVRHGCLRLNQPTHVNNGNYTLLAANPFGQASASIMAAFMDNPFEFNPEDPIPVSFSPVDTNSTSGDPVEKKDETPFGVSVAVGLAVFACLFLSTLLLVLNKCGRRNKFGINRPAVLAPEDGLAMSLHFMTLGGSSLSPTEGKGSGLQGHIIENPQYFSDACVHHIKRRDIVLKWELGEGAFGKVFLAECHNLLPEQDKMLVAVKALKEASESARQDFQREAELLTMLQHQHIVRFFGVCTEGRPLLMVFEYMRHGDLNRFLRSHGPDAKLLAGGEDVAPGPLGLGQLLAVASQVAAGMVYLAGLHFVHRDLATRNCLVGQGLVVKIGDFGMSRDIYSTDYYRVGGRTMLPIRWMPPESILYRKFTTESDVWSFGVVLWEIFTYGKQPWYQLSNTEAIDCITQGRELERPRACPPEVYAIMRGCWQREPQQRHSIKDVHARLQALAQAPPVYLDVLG
Protocol: as §1

SU-DHL-1 cells = assay: SU-DHL-1 cell viability (MTS); type: cell-based; conditions: Homo sapiens; SU-DHL-1, 72 hours
Protocol: FIGS. 7A-7C. EP009 reduces ALCL cell viability through induction of caspase 3 mediated apoptosis. (A) SUP-M2, SU-DHL-1 or H2228 cells were cultured with increasing amounts of EP009 (0-10 μM) for 72 hours and cell viability measured with the MTS tetrazolium salt assay. Values represent mean absorbance (OD490-OD650 nm) normalized to vehicle (PBS) treated control cells, while error bars represent the standard deviation (n=3). (B) SU-DHL-1 cells were treated with vehicle (PBS) or increasing amounts of EP009 (0-50 μM) for 24 hours. Cells were then lysed, clarified, and subjected to Luminex multiplex analysis to detect activated caspase 3 and (C) cleaved PARP. Values represent MFI normalized to corresponding GAPDH MFI, while error bars represent the standard deviation (n=2). Representative data from three independent experiments are shown. Statistical significance was determined using Student's t-test. (*, p<0.05).
Cell viability was assessed with 3-(4,5-dimethylthiazol-2-yl)-5-(3-carboxymethoxyphenyl)-2-(4-sulfophenyl)-2H-tetrazolium salt (MTS) reagent (Promega) in triplicates according to the manufacturer's instructions. Three independent experiments were performed. The error bars represent standard deviation.

ZAP70 = ZAP70 (Homo sapiens, UniProt P43403); assay: Kinase panel: ZAP70; type: biochemical; conditions: 10 μM EP009
Protocol: as §1

AKT2 = AKT2 (Homo sapiens, UniProt P31751); assay: Kinase panel: AKT2; type: biochemical; conditions: 10 μM EP009
AKT2, sequence (P31751 whole entry): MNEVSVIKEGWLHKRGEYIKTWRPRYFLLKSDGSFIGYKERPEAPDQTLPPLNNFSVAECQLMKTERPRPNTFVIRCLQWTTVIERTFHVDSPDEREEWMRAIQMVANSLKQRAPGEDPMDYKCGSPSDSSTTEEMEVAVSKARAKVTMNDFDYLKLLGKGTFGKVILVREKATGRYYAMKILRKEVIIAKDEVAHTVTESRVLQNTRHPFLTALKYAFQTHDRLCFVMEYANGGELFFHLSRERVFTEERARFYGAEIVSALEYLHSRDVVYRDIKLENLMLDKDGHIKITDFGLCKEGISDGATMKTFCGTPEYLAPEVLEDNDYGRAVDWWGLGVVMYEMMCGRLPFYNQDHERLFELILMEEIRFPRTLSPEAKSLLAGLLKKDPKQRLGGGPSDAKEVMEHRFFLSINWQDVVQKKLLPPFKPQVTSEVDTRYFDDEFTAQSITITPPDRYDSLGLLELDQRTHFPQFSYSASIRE
Protocol: as §1

PDGFRB = PDGFRB (Homo sapiens, UniProt P09619); assay: Kinase panel: PDGFRB; type: biochemical; conditions: 10 μM EP009
PDGFRB, sequence (P09619 33-1106): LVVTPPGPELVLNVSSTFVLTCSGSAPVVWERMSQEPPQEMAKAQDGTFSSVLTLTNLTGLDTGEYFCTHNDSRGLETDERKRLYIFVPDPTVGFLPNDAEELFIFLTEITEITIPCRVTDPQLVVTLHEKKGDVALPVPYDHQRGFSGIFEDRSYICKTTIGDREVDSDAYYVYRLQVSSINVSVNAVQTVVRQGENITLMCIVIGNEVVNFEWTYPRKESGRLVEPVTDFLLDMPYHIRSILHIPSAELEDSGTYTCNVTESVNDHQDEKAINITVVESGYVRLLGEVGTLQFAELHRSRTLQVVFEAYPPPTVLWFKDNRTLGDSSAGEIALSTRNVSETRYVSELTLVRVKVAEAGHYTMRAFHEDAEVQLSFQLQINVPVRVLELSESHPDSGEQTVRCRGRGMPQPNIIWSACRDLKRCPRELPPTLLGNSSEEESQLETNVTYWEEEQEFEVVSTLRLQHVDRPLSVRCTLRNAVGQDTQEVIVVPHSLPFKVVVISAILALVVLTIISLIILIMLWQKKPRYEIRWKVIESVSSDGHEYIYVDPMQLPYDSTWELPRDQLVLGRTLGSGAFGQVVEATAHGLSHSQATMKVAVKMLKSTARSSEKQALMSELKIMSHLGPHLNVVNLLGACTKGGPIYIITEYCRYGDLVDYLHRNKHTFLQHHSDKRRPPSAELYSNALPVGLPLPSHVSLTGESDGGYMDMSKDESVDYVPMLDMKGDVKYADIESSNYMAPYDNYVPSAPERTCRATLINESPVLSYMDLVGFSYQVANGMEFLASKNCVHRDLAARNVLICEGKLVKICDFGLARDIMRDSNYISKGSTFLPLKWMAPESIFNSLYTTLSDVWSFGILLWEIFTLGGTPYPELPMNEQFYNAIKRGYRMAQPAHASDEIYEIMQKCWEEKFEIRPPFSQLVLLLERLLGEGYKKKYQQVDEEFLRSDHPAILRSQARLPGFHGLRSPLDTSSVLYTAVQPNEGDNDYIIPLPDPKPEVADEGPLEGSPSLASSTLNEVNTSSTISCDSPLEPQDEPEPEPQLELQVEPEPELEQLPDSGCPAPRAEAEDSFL
Protocol: as §1

ULK2 = ULK2 (Homo sapiens, UniProt Q8IYT8); assay: Kinase panel: ULK2; type: biochemical; conditions: 10 μM EP009
ULK2, sequence (Q8IYT8 whole entry): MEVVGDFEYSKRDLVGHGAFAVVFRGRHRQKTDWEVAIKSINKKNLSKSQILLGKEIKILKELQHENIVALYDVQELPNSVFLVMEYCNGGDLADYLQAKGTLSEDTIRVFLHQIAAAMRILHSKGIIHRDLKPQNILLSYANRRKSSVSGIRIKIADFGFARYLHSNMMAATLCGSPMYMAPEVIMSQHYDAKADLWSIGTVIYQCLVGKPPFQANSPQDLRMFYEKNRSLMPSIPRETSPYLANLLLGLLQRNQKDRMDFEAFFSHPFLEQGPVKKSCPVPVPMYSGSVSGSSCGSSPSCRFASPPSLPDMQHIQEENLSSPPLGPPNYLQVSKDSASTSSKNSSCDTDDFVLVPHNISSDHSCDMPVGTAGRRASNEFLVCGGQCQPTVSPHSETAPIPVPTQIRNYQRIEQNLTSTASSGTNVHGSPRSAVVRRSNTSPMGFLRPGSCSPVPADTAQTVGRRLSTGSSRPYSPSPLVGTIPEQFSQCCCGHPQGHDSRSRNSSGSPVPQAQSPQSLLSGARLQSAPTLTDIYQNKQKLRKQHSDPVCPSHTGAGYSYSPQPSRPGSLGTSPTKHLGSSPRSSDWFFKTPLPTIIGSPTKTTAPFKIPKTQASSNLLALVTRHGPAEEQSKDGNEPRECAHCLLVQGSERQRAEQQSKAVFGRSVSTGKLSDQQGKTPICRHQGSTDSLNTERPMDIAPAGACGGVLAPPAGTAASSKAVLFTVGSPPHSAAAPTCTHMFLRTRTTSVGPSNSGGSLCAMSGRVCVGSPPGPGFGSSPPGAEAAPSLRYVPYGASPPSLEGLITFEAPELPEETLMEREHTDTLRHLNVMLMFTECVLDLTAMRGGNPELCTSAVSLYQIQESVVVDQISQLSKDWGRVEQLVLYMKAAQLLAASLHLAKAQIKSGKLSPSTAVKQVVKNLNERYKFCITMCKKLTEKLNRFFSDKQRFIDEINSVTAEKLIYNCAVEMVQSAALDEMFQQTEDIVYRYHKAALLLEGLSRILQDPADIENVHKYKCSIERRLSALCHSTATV
Protocol: as §1

GSK3B = GSK3B (Homo sapiens, UniProt P49841); assay: Kinase panel: GSK3B; type: biochemical; conditions: 10 μM EP009
Protocol: as §1

BRAF = BRAF (Homo sapiens, UniProt P15056); assay: Kinase panel: BRAF; type: biochemical; conditions: 10 μM EP009
BRAF, sequence (P15056 whole entry): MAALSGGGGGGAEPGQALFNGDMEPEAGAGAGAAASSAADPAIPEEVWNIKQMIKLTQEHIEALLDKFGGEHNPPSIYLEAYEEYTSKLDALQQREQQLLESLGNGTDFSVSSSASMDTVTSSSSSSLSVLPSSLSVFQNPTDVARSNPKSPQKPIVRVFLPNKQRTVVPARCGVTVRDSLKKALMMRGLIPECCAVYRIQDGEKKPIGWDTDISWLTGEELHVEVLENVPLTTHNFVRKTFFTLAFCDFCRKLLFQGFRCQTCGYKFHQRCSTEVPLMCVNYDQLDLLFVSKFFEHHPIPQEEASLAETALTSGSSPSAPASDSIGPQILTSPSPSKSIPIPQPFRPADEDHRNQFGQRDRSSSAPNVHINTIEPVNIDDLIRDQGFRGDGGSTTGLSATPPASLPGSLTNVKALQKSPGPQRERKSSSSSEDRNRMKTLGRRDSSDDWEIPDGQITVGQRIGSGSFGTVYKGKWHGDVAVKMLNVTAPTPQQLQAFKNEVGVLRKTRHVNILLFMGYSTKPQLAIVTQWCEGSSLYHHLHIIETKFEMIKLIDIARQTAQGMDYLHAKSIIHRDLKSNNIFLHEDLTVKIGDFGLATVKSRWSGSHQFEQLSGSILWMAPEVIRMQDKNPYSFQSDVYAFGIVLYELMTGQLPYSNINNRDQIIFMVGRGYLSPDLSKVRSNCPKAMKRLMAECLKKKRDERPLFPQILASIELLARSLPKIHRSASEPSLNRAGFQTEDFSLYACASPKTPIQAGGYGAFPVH
Protocol: as §1

KIT = KIT (Homo sapiens, UniProt P10721); assay: Kinase panel: KIT; type: biochemical; conditions: 10 μM EP009
KIT, sequence (P10721 26-976): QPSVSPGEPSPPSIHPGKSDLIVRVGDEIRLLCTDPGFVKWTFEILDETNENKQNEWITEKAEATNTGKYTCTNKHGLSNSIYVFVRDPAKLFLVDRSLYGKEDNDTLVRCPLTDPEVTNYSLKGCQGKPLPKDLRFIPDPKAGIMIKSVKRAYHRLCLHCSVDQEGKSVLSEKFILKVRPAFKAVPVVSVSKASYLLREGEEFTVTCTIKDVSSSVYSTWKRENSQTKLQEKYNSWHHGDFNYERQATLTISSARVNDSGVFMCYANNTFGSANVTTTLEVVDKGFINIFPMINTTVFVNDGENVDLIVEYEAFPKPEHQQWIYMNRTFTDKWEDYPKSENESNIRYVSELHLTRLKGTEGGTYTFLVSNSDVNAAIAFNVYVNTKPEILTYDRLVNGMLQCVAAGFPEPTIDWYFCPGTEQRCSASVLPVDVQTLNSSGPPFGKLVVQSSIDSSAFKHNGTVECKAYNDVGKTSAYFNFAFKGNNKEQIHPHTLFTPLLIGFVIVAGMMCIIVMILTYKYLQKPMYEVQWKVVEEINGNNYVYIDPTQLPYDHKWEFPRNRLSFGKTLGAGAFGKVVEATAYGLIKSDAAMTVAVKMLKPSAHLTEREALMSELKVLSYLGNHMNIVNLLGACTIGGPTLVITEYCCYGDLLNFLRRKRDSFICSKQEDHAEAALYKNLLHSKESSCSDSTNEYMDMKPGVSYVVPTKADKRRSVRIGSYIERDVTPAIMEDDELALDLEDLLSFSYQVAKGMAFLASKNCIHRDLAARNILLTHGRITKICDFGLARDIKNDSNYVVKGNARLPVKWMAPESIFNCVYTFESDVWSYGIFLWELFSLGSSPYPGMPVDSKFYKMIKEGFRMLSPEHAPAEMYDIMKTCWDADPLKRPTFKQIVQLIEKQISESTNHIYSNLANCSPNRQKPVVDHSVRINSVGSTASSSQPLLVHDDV
Protocol: as §1

ERBB4 = ERBB4 (Homo sapiens, UniProt Q15303); assay: Kinase panel: ERBB4; type: biochemical; conditions: 10 μM EP009
Protocol: as §1

## C=C1CCCCCCCCCC(CO)C1=O (centres unmarked) [EP009, 2-(Hydroxymethyl)-12-methylenecyclododecanone]
MKNK1
  Kinase Activity (% of Control): 100 % of Control
TRKA
  Kinase Activity (% of Control): 65 % of Control
SU-DHL-1 cells
  IC50: 5 µM
ZAP70
  Kinase Activity (% of Control): 99 % of Control
AKT2
  Kinase Activity (% of Control): 100 % of Control
PDGFRB
  Kinase Activity (% of Control): 100 % of Control
ULK2
  Kinase Activity (% of Control): 58 % of Control
GSK3B
  Kinase Activity (% of Control): 100 % of Control
BRAF
  Kinase Activity (% of Control): 72 % of Control
KIT
  Kinase Activity (% of Control): 100 % of Control
ERBB4
  Kinase Activity (% of Control): 91 % of Control
